Assay results reported in patent publication US8802704B2, “Oxadiazole derivatives” (Merck Serono SA, priority 2009, dated 2014).
Structures can show the parent of a compound that is named as a salt. Where two headings read alike, the source gives them in different places.

Columns and labels:
S1P1 [1] = molecular target: T1, S1P1 (Homo sapiens, UniProt P21453); assay: S1P1 internalization assay in S1P1-U2OS cells (cell imaging); assay type: cell-based; settings: U2OS cells expressing S1P1-EGFP, 1 hour
Description: Cellular functional assays: Internalization of Sphingosine-1-phosphate receptor 1 (S1P1) in a human Cell line (U2OS) in a 384-well format using a Cell Imaging analysis.
The S1P1 internalization assay was performed in 384 well plates (Corning® 384 black with clear bottom 3712) using S1P1-U2OS cells from Biolmage (C039A), a human epithelial cell line (Human Bone Osteosarcoma Epithelial Cells). These cells expressed the human S1P1 Receptor fused to the green fluorescent protein (EGFP). A standard CMV promoter (cytomegalovirus promoter) controls the expression of S1P1-EGFP and continuous expression was maintained by addition of geneticin to the culture medium.
S1P1Receptor desensitization induced the internalization of the membrane-localized S1P1-EGFP fusion protein to endosomes, which can be monitored by cell imaging analysis. The cells are plated in low serum medium (Dulbecco's Modified Eagle Medium (DMEM) with Glutamax-1 and high glucose, 1% Penicillin/Streptomycin, 1% Fetal Calf Serum (FCS), 0.5 mg/ml Geneticin) overnight.
The next day, S1P1-U2OS cells are incubated in 20 μl serum free medium (DMEM with Glutamax-1 and high glucose, 0.1% of fatty-acid free Bovin Serum Albumin (BSA), 10 mM, N′-2-Hydroxyethylpiperazine-N′-2 ethanesulphonic acid (HEPES) 1M) for 2 hours at 37° C./5% CO2. The cells are then treated with 4 μl compounds/agonists (6×/3% DMSO) for a total volume of 24 μl, and plates are incubated for 1 hour at 37° C./5% CO2.
S1P1-U2OS cells are fixed with 25 μl Paraformaldehyde 8% and stained with Hoechst 33345 dye (1:1000) for 20 minutes.
They were then washed 3 times with Phosphate Buffered Saline (PBS) and plates are sealed. The internalization of the receptor S1P1-EGFP is measured on Cellomics by calculating the “spot count per object” (“object” corresponds to nuclear and “spot” corresponds to S1P1-EGFP receptor). Internalization data were observed thanks to vHCS View and analyzed using Genedata® software.
Target sequence in this assay (P21453 whole entry): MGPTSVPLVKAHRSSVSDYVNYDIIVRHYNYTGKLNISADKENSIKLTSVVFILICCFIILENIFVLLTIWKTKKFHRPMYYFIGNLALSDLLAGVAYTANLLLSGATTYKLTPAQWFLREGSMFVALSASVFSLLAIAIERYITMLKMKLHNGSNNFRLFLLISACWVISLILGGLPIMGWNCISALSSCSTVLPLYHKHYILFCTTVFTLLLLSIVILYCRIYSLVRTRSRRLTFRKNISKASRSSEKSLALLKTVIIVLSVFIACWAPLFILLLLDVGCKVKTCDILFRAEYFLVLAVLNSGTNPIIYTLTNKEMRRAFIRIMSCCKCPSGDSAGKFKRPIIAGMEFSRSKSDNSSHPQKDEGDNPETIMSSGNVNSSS

S1P1 [2] = molecular target: T1, S1P1; assay: 35S-GTPγS binding on membranes from CHO cells expressing S1P1; assay type: biochemical; settings: read-out: S1P1/GTPG EC50
Description: (§1) Membranes were prepared from CHO cells expressing S1P1 or S1P3 for use in ligand and […] binding studies. Cells were suspended in 50 mM TRIS, pH 7.4, 2 mM EDTA, 250 mM Sucrose (buffer A) and 1× Complete protease inhibitor cocktail (Roche), and disrupted at 4° C. by N2 decompression using a cell disruption bomb (Parr Instrument). Following centrifugation at 1000 RPM for 10 min at 4° C., the supernatant was diluted (2×) in buffer A and centrifuged again at 19000 RPM for 75 min at 4° C. The pellet was then suspended in 10 mM HEPES, pH 7.4, 1 mM EDTA, 250 mM Sucrose (Buffer B), and 1× Complete EDTA-free protease inhibitor cocktail and homogenized using a potter. Membranes were flash frozen in liquid N2 and stored at −80° C.
Membranes (1 to 10 μg protein) prepared as described above, were incubated in 96-well Scintiplates (PerkinElmer) with test compounds diluted in DMSO, in 140 μl of 20 mM HEPES, pH 7.4, 10 mM MgCl2, 2 μg/well Saponin, 0.2% fatty acid free BSA (Assay buffer), 125 mM NaCl and 1.5 μM GDP. […] Supernatant was discarded and membrane bound radioactivity was measured on a PerkinElmer 1450 MicroBeta counter. Triplicate samples were averaged and expressed as % response relative to S1P activation in absence of compound (n=2).
The “potency” or the “activity” of the compounds is determined by the EC50 values as evaluated in the above described 35S-GTPγS binding assay.
Target sequence in this assay (P21453 whole entry, species assumed): as the sequence (P21453 whole entry) above

S1P1 [3] = molecular target: T1, S1P1; assay: Receptor binding assay, [33P]sphingosine 1-phosphate competition (SPA), S1P1
Description: Cells were suspended in 50 mM TRIS, pH 7.4, 2 mM EDTA, 250 mM Sucrose (buffer A) and 1× Complete protease inhibitor cocktail (Roche), and disrupted at 4° C. by N2 decompression using a cell disruption bomb (Parr Instrument). […] The pellet was then suspended in 10 mM HEPES, pH 7.4, 1 mM EDTA, 250 mM Sucrose (Buffer B), and 1× Complete EDTA-free protease inhibitor cocktail and homogenized using a potter. Membranes were flash frozen in liquid N2 and stored at −80° C.
[33P]sphingosine 1-phosphate (3000 Ci/mmol; American Radiolabeled Chemicals, Inc.) was added to test compounds in 20% DMSO by competition. […] Triplicate samples were averaged and normalized as percentage of inhibition relative to total binding (only DMSO in well) and non-specific binding (1000-fold excess of unlabeled S1P). Binding data were analyzed using the GraphPad Prism program or Genedata software.
Target sequence in this assay (P21453 whole entry, species assumed): as the sequence (P21453 whole entry) above

S1P3 = S1P3 (Homo sapiens, UniProt Q99500); assay: Receptor binding assay, [33P]sphingosine 1-phosphate competition (SPA), S1P3
Description: as §1
[33P]sphingosine 1-phosphate (3000 Ci/mmol; American Radiolabeled Chemicals, Inc.) was added to test compounds in 20% DMSO by competition. Membranes and WGA SPA beads (GE Healthcare) were added to give a final volume of 100 μl in 96-well plates or 50 μl in 384-well plates with assay concentrations of 30 pM or 15 pM [33P]sphingosine 1-phosphate (respectively for S1P1 or S1P3), 50 mM HEPES, pH 7.5, 5 mM MgCl2, 100 mM NaCl, 0.4% fatty acid-free BSA, 1-5 μg/well of proteins in 96-well plates vs 0.6-1 μg/well of proteins in 384-well plates and 100 μg/well of WGA SPA beads in 96-well plates vs 75 μg/well of WGA SPA beads in 384-well plates. Binding was performed for 60 min at RT on a shaker and bound radioactivity was measured on a PerkinElmer 1450 MicroBeta counter. Triplicate samples were averaged and normalized as percentage of inhibition relative to total binding (only DMSO in well) and non-specific binding (1000-fold excess of unlabeled S1P). Binding data were analyzed using the GraphPad Prism program or Genedata software.

[4] = 384 well-plate, read-out: S1P1 binding Ki (M) (384 well-plate)
[5] = 384 well-plate, read-out: S1P3 binding Ki (M) (384 well-plate)

Chain of S1P3 (Q99500 whole entry, species assumed): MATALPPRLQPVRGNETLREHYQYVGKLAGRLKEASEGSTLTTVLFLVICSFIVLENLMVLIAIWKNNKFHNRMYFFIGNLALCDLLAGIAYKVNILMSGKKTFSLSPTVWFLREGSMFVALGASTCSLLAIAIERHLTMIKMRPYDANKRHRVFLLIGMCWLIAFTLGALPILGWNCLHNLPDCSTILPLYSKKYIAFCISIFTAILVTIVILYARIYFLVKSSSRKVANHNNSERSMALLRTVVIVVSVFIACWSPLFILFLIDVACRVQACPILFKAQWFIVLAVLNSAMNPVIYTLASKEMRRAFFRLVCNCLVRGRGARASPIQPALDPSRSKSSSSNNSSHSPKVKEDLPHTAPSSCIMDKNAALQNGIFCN

| Compound | melting point | EC50 (S1P1 [1]) | EC50 (S1P1 [2]) | Ki (S1P1 [3]; 96 well-plate, read-out: S1P1 binding Ki (M) (96 well-plate)) | Ki (S1P1 [3]; [4]) | Ki (S1P3; 96 well-plate, read-out: S1P3 binding Ki (M) (96 well-plate)) | Ki (S1P3; [5]) |
| --- | --- | --- | --- | --- | --- | --- | --- |
| COCc1cc(-c2nc(-c3cccc(CN(C)CC(=O)O)c3)no2)ccc1-c1ccccc1C(F)(F)F (as salt: hydrochloride) [Example 49, N-(3-{5-[2-(methoxymethyl)-2′-(trifluoromethyl)biphenyl-4-yl]-1,2,4-oxadiazol-3-yl}benzyl)-N-methylglycine] | 207 °C | – | – | – | – | – | – |
| Cc1cc(-c2nc(-c3cc(F)cc(CN(C)CC(=O)O)c3)no2)ccc1-c1ccccc1C(F)(F)F (as salt: hydrochloride) [Example 104, N-(3-fluoro-5-{5-[2-methyl-2′-(trifluoromethyl)biphenyl-4-yl]-1,2,4-oxadiazol-3-yl}benzyl)-N-methylglycine] | 207 °C | – | – | – | – | – | – |
| CCOc1cc(-c2nc(-c3ccc(CN(C)CC(=O)O)cc3)no2)ccc1-c1ccccc1C(F)(F)F (as salt: hydrochloride) [Example 115, N-(4-{5-[2-ethoxy-2′-(trifluoromethyl)biphenyl-4-yl]-1,2,4-oxadiazol-3-yl}benzyl)-N-methylglycine] | 210 °C | – | – | – | – | – | – |
| CN(CC(=O)O)Cc1cc(F)cc(-c2noc(-c3ccc(-c4ccccc4C(F)(F)F)c(Cl)c3)n2)c1 (as salt: hydrochloride) [Example 136, N-(3-{5-[2-chloro-2′-(trifluoromethyl)biphenyl-4-yl]-1,2,4-oxadiazol-3-yl}-5-fluorobenzyl)-N-methylglycine] | 212 °C | – | – | – | – | – | – |
| COCCN(CC(=O)O)Cc1ccc(-c2noc(-c3ccc(-c4ccccc4C)c(C(F)(F)F)c3)n2)cc1 [Example 138, N-(2-methoxyethyl)-N-(4-{5-[2′-methyl-2-(trifluoromethyl)biphenyl-4-yl]-1,2,4-oxadiazol-3-yl}benzyl)glycine] | – | 26.1 nM | – | – | 5.16e-09 M | – | 4.79e-07 M |
| Cc1ccccc1-c1ccc(-c2nc(-c3ccc(CN(C)CC(=O)O)cc3Cl)no2)cc1C(F)(F)F [Example 145, 2-((4-(5-(2-(trifluoromethyl)-2′-methylbiphenyl-4-yl)-1,2,4-oxadiazol-3-yl)-3-chlorobenzyl)(methyl)amino)acetic acid] | – | 9.44 nM | – | – | 2.22e-09 M | – | 2.85e-07 M |
| Cc1ccccc1-c1ccc(-c2nc(-c3cc(F)c(CN(C)CC(=O)O)c(F)c3)no2)cc1C(F)(F)F [Example 148, 2-((2,6-difluoro-4-(5-(2′-methyl-2-(trifluoromethyl)biphenyl-4-yl)-1,2,4-oxadiazol-3-yl)benzyl)(methyl)amino)acetic acid] | – | 24.7 nM | – | – | 2.38e-09 M | – | 8.34e-07 M |
| Cc1cc(-c2nc(-c3ccc(CN(C)CC(=O)O)c(F)c3F)no2)ccc1-c1ccccc1C(F)(F)F [Example 152, 2-((2,3-difluoro-4-(5-(2-methyl-2′-(trifluoromethyl)biphenyl-4-yl)-1,2,4-oxadiazol-3-yl)benzyl)(methyl)amino)acetic acid] | – | 68.4 nM | – | – | 3.71e-09 M | – | 1.25e-05 M |
| Cc1cc(-c2nc(-c3ccc(CN(C)CC(=O)O)cc3Cl)no2)ccc1-c1ccccc1C(F)(F)F [Example 153, 2-((3-chloro-4-(5-(2-methyl-2′-(trifluoromethyl)biphenyl-4-yl)-1,2,4-oxadiazol-3-yl)benzyl)(methyl)amino)acetic acid] | – | 50.9 nM | – | – | 3.32e-09 M | – | 7.5e-06 M |

Other lines, results leading:

| melting point | EC50 (S1P1 [1]) | EC50 (S1P1 [2]) | Ki (S1P1 [3]; 96 well-plate, read-out: S1P1 binding Ki (M) (96 well-plate)) | Ki (S1P1 [3]; [4]) | Ki (S1P3; 96 well-plate, read-out: S1P3 binding Ki (M) (96 well-plate)) | Ki (S1P3; [5]) | Compound |
| --- | --- | --- | --- | --- | --- | --- | --- |
| 183 °C | – | – | – | – | – | – | Cc1ccccc1-c1ccc(-c2nc(-c3ccc(CN(C)CC(=O)O)c(F)c3)no2)cc1C(F)(F)F (as salt: hydrochloride) [Example 70, N-(2-fluoro-4-{5-[2′-methyl-2-(trifluoromethyl)biphenyl-4-yl]-1,2,4-oxadiazol-3-yl}benzyl)-N-methylglycine] |
| – | 8.75 nM | 1.24 nM | 4.47e-10 M | 1.93e-09 M | 2.36e-07 M | 1.68e-07 M | Cc1ccccc1-c1ccc(-c2nc(-c3cccc(CN(C)CC(=O)O)c3)no2)cc1C(F)(F)F [Example 14, N-methyl-N-(3-{5-[2′-methyl-2-(trifluoromethyl)biphenyl-4-yl]-1,2,4-oxadiazol-3-yl}benzyl)glycine] |
| – | 18 nM | – | – | 2.07e-09 M | – | 2.97e-07 M | Cc1ccccc1-c1ccc(-c2nc(-c3ccc(CN(C)CC(=O)O)c(F)c3F)no2)cc1C(F)(F)F [Example 150, 2-((2,3-difluoro-4-(5-(2-(trifluoromethyl)-2′-methylbiphenyl-4-yl)-1,2,4-oxadiazol-3-yl)benzyl)(methyl)amino)acetic acid] |
| – | 17.3 nM | – | – | 3.16e-09 M | – | 1.07e-06 M | Cc1cc(-c2noc(-c3ccc(-c4ccccc4C)c(C(F)(F)F)c3)n2)ccc1CN(C)CC(=O)O [Example 154, 2-(methyl(2-methyl-4-(5-(2′-methyl-2-(trifluoromethyl)biphenyl-4-yl)-1,2,4-oxadiazol-3-yl)benzyl)amino)acetic acid] |
| – | 17.3 nM | – | – | 3.72e-09 M | – | 8.1e-06 M | CCc1cc(-c2noc(-c3ccc(-c4ccccc4C)c(C(F)(F)F)c3)n2)ccc1CN(C)CC(=O)O [Example 155, 2-((2-ethyl-4-(5-(2′-methyl-2-(trifluoromethyl)biphenyl-4-yl)-1,2,4-oxadiazol-3-yl)benzyl)(methy)amino)acetic acid] |
